Test results taken from patent US3995061A, “Pharmaceutical composition and method of using the same” (Chugai Seiyaku Kabushiki Kaisha, priority 1974, dated 1976).
Entries after “also recorded” stand apart in the source; their conditions may differ.

Key:
[1] = especially noticeable when continuously administered; cited from earlier work
[2] = Toxicity by continuous administration for 10 days (body weight); assay type: in vivo, Wister-Imamichi strain male rats; settings: rat, 10 mg/head oral once a day
Experimental: Wister-Imamichi strain male rats weighing 230 ± 30 g were divided into four groups of 10 members each, 3 groups of which were orally administered with 4-O-methylascochlorin in a dose of 10 mg/head, 4-O-methylascochlorin in 20 mg/head and ascochlorin in 10 mg/head, respectively, as a suspension in 2% gum arabic aqueous solution once a day for 10 days. The remaining group was administered with 2% gum arabic aqueous solution, the dose and way of administration being identical to those disclosed above. The increase in body weight of the rats of each group was observed every day during the administration. The results are shown in the graph of FIG. 1.

[3] = ascochlorin, background statement; cited from earlier work
blood platelet = experiment: Aggregation inhibition activity of blood platelet (ADP-induced, platelet rich plasma of orally dosed rats); assay type: in vivo, Wister-Imamich strain male rats; settings: rat, 20 mg/kg oral, 6 hours; adenosine-5'-diphosphate 10^-5 M in platelet rich plasma
Experimental: In this Example Wister-Imamich strain male rats weighing 230 ± 30 g which had been bred with the use of a commercial chow, CLEA CE-2 were used.
The rats were divided into groups of five members each, and orally administered with a different ascochlorin derivative as a suspension in 2% gum arabic aqueous solution in a dose of 20 mg/kg.body weight. Six hours after the administration, the blood of each rat was sampled from the heart and after the addition of citric acid, the blood sample was centrifuged at 1,500 r.p.m. for 10 minutes to obtain platelet rich plasma. The anti-aggregation effect when the concentration of adenosine-5'-diphosphatein the platelet rich plasma is ultimately 10^^-5 M is shown in Table II.
As positive controls, ascochlorin, ethyl-α-(p-chlorophenoxy) isobutylate and acetyl salicyclic acid were used. The aggregation inhibition ratio was evaluated in percent by comparing the increase of transmission rate caused by the addition of adenosin-5'-diphosphate to platelet rich plasma of the control group (no medication) with that caused on the groups administered with an ascochlorin derivative which is calculated for 100.

Cholesterol in serum = experiment: Serum cholesterol lowering activity in rats on high-fat feed, single oral dose; assay type: in vivo, Wister-Imamich strain male rats; settings: rat, 75 mg/kg oral, 6 hours after administration
Source text: The cholesterol lowering activity of the ascochlorin derivatives of this invention was observed by the use of Wister-Imamich strain male rats weighing 230 ± 30 g which had been bred with the use of high-fat feed comprising 1000 g of powdery chow CLEA CE-2 (sold by NIHON CLEA KABUSHIKI KAISHA) admixed with 10 g of cholesterol, 95 g of hydrogenated coconut oil, 2 g of cholic acid, 150 g of milk casein and 671 g of sucrose.
The rats were divided into groups of five members each, and orally administered with a different ascochlorin derivative as a suspension in gum arabic aqueous solution in a dose of 75 mg/kg.body weight. The rats were kept from eating food, and 6 hours after the administration, the blood of each rat was sampled from its heart. The total amount of cholesterol in serum was determined by a modified Zurkowski method (Clinical Chemistry, 10, 451, 1964) with the use of a colorimeter for blood analysis (sold by KYOTO DAIICHI KAGAKU).

Serum Lipid = experiment: Hypolipidemic activity: change in level of serum lipid, 30 days, high-fat feed; assay type: in vivo, Wister strain rats; settings: rat
[4] = Toxicity by continuous administration for 30 days (body weight, deaths); assay type: in vivo, Wister strain male rats; settings: rat, 50 mg/kg oral once a day
Experimental: Wister strain male rats weighing 150 ± 20 g were divided into groups of 10 members each, and each group was orally administered with 4-O-methylascochlorin as a suspension in 2% gum arabic aqueous solution in a predetermined dose once a day for 30 days, and the increase in body weight thereof was observed each day that the administration continued. As controls, ascochlorin (50 mg/kg/day) and ethyl-α-(p-chlorophenoxy) isobutylate (500 mg/kg/day) were used. The results are shown in the graph in FIG. 2.

Acute toxicity, mouse = settings: in vivo
Source text: (§1) Acute toxicity of the ascochlorin derivatives was observed by the use of Wister-Imamichi strain male rats weighing 230 ± 30 g and ddY strain male and female mice (5 weeks old) weighing 20 ±3 g which were divided into groups of 10 members each. Japanese native male rabbits weighing 2 kg ± 300 g which were divided into groups of five members each were also used. The test animals were orally or intraperitoneally administered with a different ascochlorin derivative as a suspension in 5% gum arabic aqueous solution, and the toxicity was compared with that of control in which ascochlorin was used.

[5] = Japanese Patent No. 585,252 and U.S. Pat. No. 3,546,073; cited from earlier work
Acute toxicity, rat = settings: in vivo, male
Source text: as §1

Lipid in liver and aorta = experiment: Hypolipidemic activity: change of lipid level in organs and aorta abdominalis, 30 days, high-fat feed; assay type: in vivo, Wister strain rats; settings: rat, 10.0 mg/kg oral
Experimental: Wister strain rats weighing 150 ± 20 g were divided into groups of 10 members each and bred with high-fat feed, the same as that used in Example 1. The rats were orally administered ascochlorin, 4-O-methylascochlorin or ethyl-α-(p-chlorophenoxy) isobutylate in a predetermined dose every morning for 30 days. Six hours after the last administration, liver and aorta of each rat were taken out and lipid level in the organs of each of the rats were determined. Lipid present in the liver and aorta was extracted with methanol-chloroform (1:1) by allowing it to stand overnight and the extract was assayed as to lipid level.

[6] = 10.0 mg/kg oral, average ± standard error

CC(/C=C/[C@@]1(C)[C@H](C)CCC(=O)[C@@H]1C)=C\Cc1c(O)c(Cl)c(C)c(C=O)c1O [ascochlorin, reference compound]
toxicity [1]: strong in toxicity
increase in body weight [2]: increased only slightly in body weight
hypolipidemic activity [3]: inadequate in its hypolipidemic activity
Aggregation Inhibition Ratio (blood platelet): 66.8%
Cholesterol in serum (Cholesterol in serum): 101.3 mg/dL
Serum Cholesterol, increasing or reducing ratio based on the control (Serum Lipid; 10.0 mg/kg oral): -8.8
Serum Free fatty acid, increasing or reducing ratio based on the control (Serum Lipid; 10.0 mg/kg oral): -4.0
Serum Phospholipid, increasing or reducing ratio based on the control (Serum Lipid; 10.0 mg/kg oral): -4.5
Serum Triglyceride, increasing or reducing ratio based on the control (Serum Lipid; 10.0 mg/kg oral): -10.0
Serum β-Lipoprotein, increasing or reducing ratio based on the control (Serum Lipid; 10.0 mg/kg oral): -5.6
Serum Cholesterol (Serum Lipid; [6]): 97.4 ± 4.8 mg/dL
Serum Free fatty acid (Serum Lipid; [6]): 48.3±4.7 μ eq./dl
Serum Phospholipid (Serum Lipid; [6]): 130.1 ± 8.4 mg/dL
Serum Triglyceride (Serum Lipid; [6]): 72.0 ± 13.2 mg/dL
Serum β-Lipoprotein (Serum Lipid; [6]): 720 ± 114 mg/dL
lowering of lipids in serum, liver and aorta (such effects) (Serum Lipid; oral, groups of Tables IV and V): such effects were not observed
increase in body weight ([4]; 50 mg/kg): little or no increase in body weight; also recorded: lost weight
rats died during the test period ([4]; group of 10): three
LD50 (Acute toxicity, mouse; ip, female): 68 mg/kg
LD50 (Acute toxicity, mouse; ip, male): 102 mg/kg
LD50 (Acute toxicity, mouse; po, female): > 5000 mg/kg
LD50 (Acute toxicity, mouse; po, male): > 5000 mg/kg
known activities [5]: anti-viral, anti-tumor, anti-bacterial and sedative activities and, further, cholesterol-lowering activity
LD50 (Acute toxicity, rat; ip): 258 mg/kg
LD50 (Acute toxicity, rat; oral): > 7000 mg/kg
Cholesterol in Liver, increasing or reducing ratio based on the control (Lipid in liver and aorta): +6.5
Cholesterol in Tunica intima of aorta abdominalis, increasing or reducing ratio based on the control (Lipid in liver and aorta): -4.0
Phospholipid in Liver, increasing or reducing ratio based on the control (Lipid in liver and aorta): -1.0
Triglyceride in Liver, increasing or reducing ratio based on the control (Lipid in liver and aorta): -7.3
Cholesterol in Liver (Lipid in liver and aorta; average ± standard error): 36.2 ± 3.5 mg/g
Phospholipid in Liver (Lipid in liver and aorta; average ± standard error): 69.5 ± 4.2 mg/g
Triglyceride in Liver (Lipid in liver and aorta; average ± standard error): 20.2 ± 2.5 mg/g
